The numbers were not newly measured in patent US6548087B1, “Nutritional supplement” (priority 1999, dated 2003), which cites them from elsewhere.

Molecules are shown by their SMILES.

The test system of the data set is libido and performance. The following applies: daily use.

In the case of `C[C@]12CC[C@H](O)CC1=CC[C@@H]1[C@@H]2CC[C@]2(C)C(=O)CC[C@@H]12` [DHEA, dehydroepiandrosterone], the “effect on libido and performance” value is “increase libido and performance”.
